Reference: PubChem BioAssay AID1963852 (Molecular Pharmacology Branch, DTP, NCI, 2024)

Tested on: 282377-053-R-J1-PDC complex spheroid viability
Assay: Anticancer human tumor 282377-053-R-J1-PDC patient-derived colon adenocarcinoma cell line growth inhibition [POLQ]
Conditions: for IC50: curve of first compound; for viability, T/C: stronger effect = lower value
Procedure, shortened: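 PDC + HUVEC + MSC complex spheroids; POLQ inhibitors ± partner drugs; top conc. at/near clinical Cmax, else 10 microM (SN-38 1 microM), half-log dilutions; 37 degrees C, 5% CO2.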

[1] = second compound 0.0316 µM, first compound 0.0316 µM
[2] = second compound 0.0316 µM, first compound 0.1 µM
[3] = second compound 0.1 µM, first compound 0.0316 µM
[4] = second compound 0.1 µM, first compound 0.1 µM
[5] = second compound 0.316 µM, first compound 0.0316 µM
[6] = second compound 0.316 µM, first compound 0.1 µM
[7] = second compound 1 µM, first compound 0.0316 µM
[8] = second compound 1 µM, first compound 0.1 µM
[9] = second compound 3.16 µM, first compound 0.0316 µM
[10] = second compound 3.16 µM, first compound 0.1 µM
[11] = second compound 10 µM, first compound 0.0316 µM
[12] = second compound 10 µM, first compound 0.1 µM
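Further: spheroids exposed to compounds for seven days.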
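Wherever viability, T/C is given: 100% = DMSO vehicle control viability.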

Work on `O=C(c1cc(Cc2n[nH]c(=O)c3ccccc23)ccc1F)N1CCN(C(=O)C2CC2)CC1` + Nc1ccc(C#CCN(C(=O)Cc2ncc(C(F)(F)F)cc2C(F)(F)F)c2ccc(F)cc2)nn1 yielded an IC50 (second compound 0.0316 µM) greater than 10 µM, an IC50 (second compound 0.1 µM) greater than 10 µM and an IC50 (second compound 0.316 µM) greater than 10 µM. It also gave an IC50 (second compound 1 µM) greater than 10 µM, an IC50 (second compound 3.16 µM) greater than 10 µM and an IC50 (second compound 10 µM) greater than 10 µM. For the same molecule, the viability, T/C [1] was 114%, the viability, T/C [2] was 104% and the viability, T/C (second compound 0.0316 µM, first compound 0.316 µM) was 101%. The viability, T/C (second compound 0.0316 µM, first compound 1 µM) was 105%, the viability, T/C (second compound 0.0316 µM, first compound 3.16 µM) was 121% and the viability, T/C (second compound 0.0316 µM, first compound 10 µM) was 105%. For the same molecule, the viability, T/C [3] was 112%, the viability, T/C [4] was 123% and the viability, T/C (second compound 0.1 µM, first compound 0.316 µM) was 98.6%. The viability, T/C (second compound 0.1 µM, first compound 1 µM) was 102%, the viability, T/C (second compound 0.1 µM, first compound 3.16 µM) was 117% and the viability, T/C (second compound 0.1 µM, first compound 10 µM) was 118%. For the same molecule, the viability, T/C [5] was 113%, the viability, T/C [6] was 97.1% and the viability, T/C (second compound 0.316 µM, first compound 0.316 µM) was 104%. The viability, T/C (second compound 0.316 µM, first compound 1 µM) was 95.2%, the viability, T/C (second compound 0.316 µM, first compound 3.16 µM) was 109% and the viability, T/C (second compound 0.316 µM, first compound 10 µM) was 94.8%. It also gave a viability, T/C [7] of 119%, a viability, T/C [8] of 103% and a viability, T/C (second compound 1 µM, first compound 0.316 µM) of 105%. For the same molecule, the viability, T/C (second compound 1 µM, first compound 1 µM) was 110%, the viability, T/C (second compound 1 µM, first compound 3.16 µM) was 112% and the viability, T/C (second compound 1 µM, first compound 10 µM) was 109%. The viability, T/C [9] was 111%, the viability, T/C [10] was 109% and the viability, T/C (second compound 3.16 µM, first compound 0.316 µM) was 111%. For the same molecule, the viability, T/C (second compound 3.16 µM, first compound 1 µM) was 106%, the viability, T/C (second compound 3.16 µM, first compound 3.16 µM) was 118% and the viability, T/C (second compound 3.16 µM, first compound 10 µM) was 115%. The viability, T/C [11] was 122%, the viability, T/C [12] was 106% and the viability, T/C (second compound 10 µM, first compound 0.316 µM) was 130%. For the same molecule, the viability, T/C (second compound 10 µM, first compound 1 µM) was 121%, the viability, T/C (second compound 10 µM, first compound 3.16 µM) was 129% and the viability, T/C (second compound 10 µM, first compound 10 µM) was 127%.
`CC[C@@]1(O)C(=O)OCc2c1cc1n(c2=O)Cc2cc3c(CN(C)C)c(O)ccc3nc2-1` + Nc1ccc(C#CCN(C(=O)Cc2ncc(C(F)(F)F)cc2C(F)(F)F)c2ccc(F)cc2)nn1 was tested, and the IC50 (second compound 0.0316 µM) was greater than 0.1 µM, the IC50 (second compound 0.1 µM) was greater than 0.1 µM and the IC50 (second compound 0.316 µM) was greater than 0.1 µM. The IC50 (second compound 1 µM) was greater than 0.1 µM, the IC50 (second compound 3.16 µM) was greater than 0.1 µM and the IC50 (second compound 10 µM) was greater than 0.1 µM. The viability, T/C (second compound 0.0316 µM, first compound 0.000316 µM) was 117%, the viability, T/C (second compound 0.0316 µM, first compound 0.001 µM) was 90.7% and the viability, T/C (second compound 0.0316 µM, first compound 0.00316 µM) was 124%. It also gave a viability, T/C (second compound 0.0316 µM, first compound 0.01 µM) of 103%, a viability, T/C [1] of 96.5% and a viability, T/C [2] of 99.8%. The viability, T/C (second compound 0.1 µM, first compound 0.000316 µM) was 91.1%, the viability, T/C (second compound 0.1 µM, first compound 0.001 µM) was 99.2% and the viability, T/C (second compound 0.1 µM, first compound 0.00316 µM) was 91%. The viability, T/C (second compound 0.1 µM, first compound 0.01 µM) was 94.7%, the viability, T/C [3] was 103% and the viability, T/C [4] was 102%. It also gave a viability, T/C (second compound 0.316 µM, first compound 0.000316 µM) of 97.1%, a viability, T/C (second compound 0.316 µM, first compound 0.001 µM) of 94.8% and a viability, T/C (second compound 0.316 µM, first compound 0.00316 µM) of 91.7%. The viability, T/C (second compound 0.316 µM, first compound 0.01 µM) was 79.3%, the viability, T/C [5] was 101% and the viability, T/C [6] was 101%. The viability, T/C (second compound 1 µM, first compound 0.000316 µM) was 95.2%, the viability, T/C (second compound 1 µM, first compound 0.001 µM) was 88.9% and the viability, T/C (second compound 1 µM, first compound 0.00316 µM) was 83%. It also gave a viability, T/C (second compound 1 µM, first compound 0.01 µM) of 85%, a viability, T/C [7] of 102% and a viability, T/C [8] of 91.1%. The viability, T/C (second compound 3.16 µM, first compound 0.000316 µM) was 95.8%, the viability, T/C (second compound 3.16 µM, first compound 0.001 µM) was 95.7% and the viability, T/C (second compound 3.16 µM, first compound 0.00316 µM) was 94.2%. It also gave a viability, T/C (second compound 3.16 µM, first compound 0.01 µM) of 95.4%, a viability, T/C [9] of 103% and a viability, T/C [10] of 91.8%. For the same molecule, the viability, T/C (second compound 10 µM, first compound 0.000316 µM) was 111%, the viability, T/C (second compound 10 µM, first compound 0.001 µM) was 93.7% and the viability, T/C (second compound 10 µM, first compound 0.00316 µM) was 124%. For the same molecule, the viability, T/C (second compound 10 µM, first compound 0.01 µM) was 112%, the viability, T/C [11] was 112% and the viability, T/C [12] was 127%.
